Drawing on PubChem BioAssay (NCI), this text covers TGI and GI50 for 12 molecules.

Several values for one entry are separate records, joined by “and”; a condition that tells them apart may be missing. Equal entries are not always repeated.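 These data come from cells grown in 96-well plates and exposed to compound for 48 hours at five concentrations. Here, GI50 denotes the concentration required for 50% inhibition of growth. The concentration for full growth arrest is given as TGI.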

Assay in all cases: NCI tumour cell line growth inhibition, 48 h
Assay [1] concerns A498 renal.
Assay [2] relates to EKVX NSCLC.
Assay [3] relates to HCC-2998 colon.
The test system of assay [4] is IGROV1 ovarian.
Assay [5] concerns K-562 leukemia.
In assay [6] the test system is NCI-H460 lung.
Assay [7] has as its system OVCAR-3 ovarian.
Assay [8] concerns OVCAR-8 ovarian.
Assay [9] has as its system SF-268 CNS.
Assay [10] deals with UACC-62 melanoma.

`CC1(C)CC23C(=O)N(c4ccccc4)C(=Nc4ccccc4)NC2=CC(C#N)=C(C#N)C3O1` (stereo not given): the TGI in assay [1], in assay [2], in assay [3], in [4], in assay [5] and in assay [6] was over 100 µM throughout. The TGI in assay [7], in assay [8], in assay [9] and in assay [10] was over 100 µM each time.

Take `CS(=O)(=O)CCNCc1ccc(-c2ccc3ncnc(Nc4ccc(OCc5ccccc5)c(C(F)(F)F)c4)c3c2)o1`: the GI50 in assay [1] is 6510 nM; in assay [2] it was 7.87 µM; in [3], 4350 nM; in [4], 6360 nM; in assay [5] it was 6830 nM; in [6], 4800 nM. Besides, the GI50 was 7370 nM in [7], 8390 nM in [8], 7990 nM in assay [9] and 4760 nM in [10]. For the same molecule, the TGI in assay [1] was 25 µM; in assay [2], over 25 µM; in [3] it was 8.25 µM; in assay [4], over 22.2 µM; in assay [5] it was 18.2 µM; in assay [6], 9.34 µM. For the same molecule, the TGI is 19.2 µM in assay [7], over 25 µM in assay [8], over 25 µM in assay [9] and 8.66 µM in assay [10].

Take `O=c1oc2ccc(Cl)cc2c(=O)n1-c1ccc(Cl)cc1F`: the GI50 was 161 nM in assay [1]; 0.688 µM in assay [2]; 2360 nM in assay [3]; 237 nM in assay [4]; 422 nM in assay [5]; 412 nM in assay [6]. Moreover, the GI50 was 355 nM in assay [7], 721 nM in assay [8], 419 nM in assay [9] and 247 nM in assay [10]. Further, the TGI in assay [1] is 0.498 µM; in [2] it was 11.3 µM; in [3] it was 8.09 µM; in assay [4], 20.6 µM; in assay [5], over 100 µM; in [6] it was 11 µM. Moreover, the TGI in assay [7] was 13.8 µM; in assay [8] it was over 21.7 µM; in [9], 7.07 µM; in assay [10] it was 0.964 µM.

Consider `C[C@]12CCC[C@H](OC=O)C1(O)C[C@H](C(=O)O)CC2` (stereo not given in full), for which the TGI in [1] was over 100 µM; in assay [2] it was 40.2 µM; in [3] it was over 100 µM; in assay [4], over 100 µM; in [5], over 100 µM; in [6], over 100 µM. The TGI in [7] is over 100 µM; in assay [8], over 100 µM; in [9], over 100 µM; in [10] it was 32.5 µM.

With `CN(C)CC/C=C1\c2ccccc2Sc2ccc(Cl)cc21`, the GI50 in [1] is 3020 nM; in assay [2], 6.47 µM; in assay [3], 1680 nM; in assay [4] it was 3240 nM; in [5] it was 2430 nM; in assay [6], 2020 nM. The GI50 in assay [7] was 3990 nM; in assay [8], 1990 nM; in assay [9], 3780 nM; in assay [10] it was 1510 nM. The TGI in assay [1] is 14.1 µM and 28 µM; in assay [2] it was 22.3 µM and 22.8 µM; in [3], 3.43 µM and 4.76 µM; in assay [4], 11.3 µM and 26.3 µM; in assay [5], 4.71 µM and 18.7 µM; in [6] it was 3.95 µM and 28.8 µM. The TGI was 13.5 µM and 26.8 µM in assay [7]; 4.44 µM and 32.8 µM in assay [8]; 14.1 µM and 30.1 µM in assay [9]; 3.09 µM and 26.7 µM in assay [10].

Regarding `N=c1nc(N)c2cc3c(N)nc(=N)c3cc12`, the TGI is over 90.6 µM in assay [1]; 75.3 µM in assay [2]; over 100 µM in assay [3]; over 100 µM in [4]; 9.57 µM in assay [5]; over 100 µM in [6]. In addition, the TGI in [7] came to 75.2 µM; in assay [8], 35 µM; in [9], 13.1 µM; in [10], 23.5 µM.

For `C/C(=C\c1ccn(-c2ccc(N)c(C(F)(F)F)c2)n1)[C@@H]1C[C@@H]2O[C@]2(C)CCC[C@H](C)[C@H](O)[C@@H](C)C(=O)C(C)(C)[C@@H](O)CC(=O)O1`, the GI50 in assay [1] was 17.5 nM; in assay [2], 0.344 µM; in [3], 31.7 nM; in [4], 77.3 nM; in assay [5], 10.9 nM; in assay [6], 8.48 nM. In addition, the GI50 in assay [7] was 9.97 nM; in assay [8], 17.7 nM; in assay [9], 34.9 nM; in assay [10], 59.9 nM. The TGI in assay [1] is 1.31 µM; in [2], over 32.5 µM; in assay [3], over 20.4 µM; in [4] it was over 32.5 µM; in assay [5], over 32.5 µM; in [6], 6.21 µM. The TGI in [7] is 1.46 µM; in assay [8] it was over 28.1 µM; in [9], over 32.5 µM; in assay [10], over 16.2 µM.

For the molecule `COc1ccc(OC)c(/C=C/c2nnc(Nc3ccc(Cl)cc3)o2)c1`, the GI50 in assay [1] is 1870 nM; in assay [2] it was 40.5 µM; in [3] it was over 100000 nM; in assay [4], 7690 nM; in assay [5], 92800 nM; in assay [6], 3770 nM. The GI50 in [7] is 3550 nM; in assay [8], 4910 nM; in assay [9] it was 7600 nM; in assay [10] it was 16200 nM. In addition, the TGI was 7.76 µM in assay [1]; over 100 µM in assay [2]; over 100 µM in assay [3]; over 100 µM in assay [4]; over 100 µM in assay [5]; over 100 µM in assay [6]. Further, the TGI in assay [7] was 15.9 µM; in assay [8], 21 µM; in assay [9], 37.9 µM; in assay [10] it was over 100 µM.

For the molecule `CS(=O)(=O)c1ccc(N/N=C/c2c(-c3ccc(S(C)(=O)=O)cc3)[nH]c3ccc(F)cc23)cc1`, the GI50 in assay [1] was 1390 nM; in assay [2], 40.2 µM; in [3], 10800 nM; in [4], 2780 nM; in [5] it was 2000 nM; in assay [6], 1770 nM. Moreover, the GI50 in assay [7] is 2230 nM; in assay [8], 1240 nM; in assay [9] it was 3400 nM; in assay [10], 1910 nM. The TGI in [1] was 4.88 µM; in assay [2], over 50 µM; in [3] it was over 50 µM; in assay [4], over 50 µM; in [5] it was over 50 µM; in assay [6], over 50 µM. For the same molecule, the TGI in assay [7], in assay [8], in assay [9] and in assay [10] was over 50 µM in each case.

As for `CNC(=O)c1ccc(Nc2ncc(C(F)(F)F)c(NCc3nccnc3N(C)S(C)(=O)=O)n2)cc1`, the GI50 in assay [1] was 2020 nM and 1590 nM and 1390 nM; in assay [2] it was 2.49 µM and 2.64 µM; in assay [3], 3680 nM and 2540 nM and 3860 nM; in [4], 881 nM and 1810 nM and 1640 nM; in assay [5] it was 4840 nM and 3200 nM and 3420 nM; in [6] it was 2050 nM and 2750 nM and 2160 nM. Also, the GI50 in [7] is 3160 nM and 2260 nM and 2710 nM; in assay [8], 3440 nM and 3690 nM and 3830 nM; in assay [9] it was 2890 nM and 2230 nM and 2730 nM; in assay [10], 1760 nM and 1660 nM and 1630 nM. Moreover, the TGI was 5.61 µM and 3.89 µM and 4.18 µM in [1]; > 10 µM and 10.8 µM in assay [2]; > 10 µM and 12.9 µM and 18 µM in assay [3]; > 10 µM and 12 µM and 13.1 µM in assay [4]; > 10 µM and 17.7 µM and > 61.1 µM in [5]; > 10 µM and 10.2 µM and 11.1 µM in assay [6]. Moreover, the TGI in [7] was > 10 µM and 8.43 µM and 12.8 µM; in assay [8], > 10 µM and 13.6 µM and 18 µM; in assay [9] it was > 10 µM and 8.63 µM and 11 µM; in assay [10] it was > 10 µM and 4.37 µM and 4.24 µM.

With `CCOC(=O)[C@H](CSSc1ncnc2cc[nH]c12)NC(=O)[C@@H](C)c1ccc2cc(OC)ccc2c1`, the GI50 in assay [1] is 6960 nM; in assay [2], over 100 µM; in assay [3], 1290 nM; in assay [4] it was 5080 nM; in assay [5] it was 156 nM; in assay [6], 3040 nM. The GI50 in [7] is 125 nM; in [8], 1820 nM; in [9], 2740 nM; in assay [10], 425 nM. Besides, the TGI was over 50.9 µM in assay [1]; over 100 µM in assay [2]; over 100 µM in assay [3]; over 100 µM in assay [4]; over 100 µM in assay [5]; over 100 µM in assay [6]. Moreover, the TGI in assay [7], in assay [8], in [9] and in [10] was over 100 µM each time.

As for `CN1CCC23c4c5ccc(O)c4OC2C(=NN=C2CCC4(O)C6Cc7ccc(O)c8c7C4(CCN6C)C2O8)CCC3(O)C1C5` (stereo not given), the TGI in assay [1], in [2], in assay [3], in assay [4], in [5] and in assay [6] was over 100 µM in each case. For the same molecule, the TGI in [7], in [8], in assay [9] and in [10] was over 100 µM in each case.
